{"source": "patent US20120322060A1", "about": "“DIAGNOSIS AND MONITORING TREATMENT OF PSYCHIATRIC DISEASES WITH SPADIN AND RELATED METHODS” (CENTRE NATIONAL DE LE RECHERCHE SCIENTIFIQUE - CNRS -, priority 2011, published 2012)", "key": {"[1]": {"settings": "in vivo", "experimental": "Since spadin exerted efficient effects after i.p. or i.v. administration, we evaluated its ability to pass through the blood-brain barrier. ^125I-labelled spadin (1 nmol of spadin plus 2×10^6 cpm ^125I-spadin) was i.v. injected and animals were sacrificed 30 min following injection. The brains were rapidly removed and homogenized. The radioactivity recovered in the brain was acid-extracted, quantified and analyzed by HPLC. […] The concentration of spadin recovered into the brain was estimated to stand around 10 nM, a concentration that corresponds to the affinity of spadin for TREK-1 and sufficient to be active on TREK-1 channel activity. This value was also in the same range of the IC50 determined by electrophysiological measurements (FIG. 3C)."}, "[2]": {"test_system": "mice", "assay": "Porsolt Forced Swim Test (FST) in mice", "assay_type": "in vivo, mouse", "settings": "for reduced immobility time: acute, 30 min before test", "experimental": "Mice (Janvier, France) were placed individually in cylinders (height: 30 cm, diameter: 15 cm) filled with 12 cm deep water (temperature: 22±1° C.) for 6 min. The total period of immobility was recorded during the last 4 min."}, "[3]": {"test_system": "CREB", "assay": "Total CREB and pCREB Western blotting of hippocampus", "assay_type": "in vivo, mouse", "settings": "4-day treatment, i.p. 10^-5 M, hippocampus extracts", "experimental": "Mouse brains were dissected on ice. Isolated hippocampi (1-2 mg wet tissue/100 μl) were homogenized in a solubilization buffer containing 20 mM HEPES (pH:7.9), 0.4 M NaCl, 20% (v/v) glycerol, 1% (v/v) Nonidet P-40, 5 mM MgCl2, 0.5 mM EDTA, 0.1 mM EGTA and protease inhibitor cocktail using a dounce homogenizer. The homogenates were centrifuged 30 min at 15,000×g at 4° C. Supernatants were stored at −70° C. until further use. Protein concentrations were measured using conventional Bradford's method. Samples ([…] proteins from each experimental group) were resuspended in SDS buffer, sonicated, boiled for 5 min before loading on 10% SDS PAGE gels and electrophoresed for 2 hours at 60 mA. Proteins were then transferred from gels onto Hybond-PVDF membranes (Amersham Biosciences) in blotting buffer (156 mM Tris, 1 M glycine, PBS) for 90 min at 80 mA and blocked with 5% skim milk (Regilait) in PBS for 2 hours at room temperature. […] Total CREB or tubulin contents were determined after stripping by using 1/1000 dilution of anti-CREB antibody (Cell Signaling Technology) and 1/1000 dilution of anti-tubulin antibody (Sigma-Aldrich). […] Relative intensities of the labeled bands were analyzed by densitometric scanning using Image) imaging system. CREB activation was expressed as the ratio between pCREB and total CREB present in each sample."}}, "note": "No end group written: not given here."}
{"sequence": "APLPRWSGPIGVSWGLR [spadin]", "values": [{"measurement": "amount of spadin recovered in the brain", "setting": "[1]", "result": "Identical amounts"}, {"measurement": "reduced immobility time", "setting": "[2]; i.c.v., 10^-7 M", "result": 66.8, "unit": "%"}, {"measurement": "reduced immobility time", "setting": "[2]; i.p., 10^-8 M", "result": 55.30, "unit": "%"}, {"measurement": "reduced immobility time", "setting": "[2]; i.v., 10^-6 M", "result": 62.9, "unit": "%"}, {"measurement": "reduction of time of immobility", "setting": "[2]; chronic, 15 days, spadin 10^-6 M, fluoxetine 1 mg/kg", "result": "around 30%"}, {"measurement": "effect in FST", "setting": "[2]; injection in kcnk2-/- mice", "result": "did not induce any change"}, {"measurement": "reduction of time spent immobile", "setting": "[2]; subchronic, 4 days, spadin i.v. 10^-6 M, fluoxetine 3 mg/kg", "result": 43.2, "unit": "%"}, {"measurement": "stimulation of pCREB (quantification of blots)", "setting": "[3]", "result": 4, "unit": "fold"}]}
